Data on three molecules can be found in patent US20220218664A1, “DRUG AND METHOD FOR TREATING OR PREVENTING COMPLICATIONS FROM DIABETES, USING SAID DRUG” (TMS Co., Ltd., priority 2019, published 2022).

Test [1] deals with streptozotocin-induced diabetic mice. The experiment in a line: Blood glucose level (BS) in streptozotocin-induced diabetic mice. The format is in vivo, C57BL/6J male mice. Conditions: 30 mg/kg i.p. once a day. The protocol: 9-week-old C57BL/6J male mice were purchased and familiarized with an animal facility for 1 week. 200 mg/kg of streptozotocin (streptozotocin; STZ) was administered […] into the peritoneal cavity of 10-week-old mice to prepare streptozotocin-induced diabetic mice (hereinafter also referred to as “STZ administration week 0”). One week after the administration of streptozotocin, blood was collected from the tail vein of the mice, and the blood glucose level (BS) was measured using an automatic blood glucose measuring device (product name: Medisafe (trademark) Mini GR-102, made by Terumo (Co)). Mice having a blood glucose level of 400 mg/dL or more were determined to be diabetic mice.
The SMTP-44D groups, the edaravone group, and the pregabalin group were administered SMTP-44D (0.3 mg/kg, 3 mg/kg, or 30 mg/kg doses, respectively), edaravone (10 mg/kg dose), or pregabalin (10 mg/kg dose) into the peritoneal cavity once a day for 3 consecutive weeks from the day following the first week to the fourth week after STZ administration.
For the above-mentioned STZ group, SMTP-44D groups, edaravone group, pregabalin group, and control group mice, the following measurements were conducted every week from the 0th week, which began on the day when streptozotocin (STZ) was administered, to the 4th week (that is, a total of five times). As algesia tests, the following von Frey test and hot plate test were conducted, and hind plantar blood flow, body weight (BW), and blood glucose level (BS) were measured using the above-mentioned automatic blood glucose measure device. Note, for example, the 0th week represents the 0th day. That is, the measurements were conducted on the 0th, 7th, 14th, 21st, and 28th days.

Test [2] is described as follows: Body weight in diabetic nephropathy model mice. The format is in vivo, Male db/db mice. The conditions noted are these: 30 mg/kg i.p. once every two days for 10 weeks; 16 weeks old.
The subject of test [3] is diabetic nephropathy model mice. Description: Blood glucose level in diabetic nephropathy model mice. The format is in vivo, Male db/db mice. Conditions: 30 mg/kg i.p. once every two days for 10 weeks; 16 weeks old.
For test [4] the test system is unchanged. Description: Urine volume (24 h, metabolic cage). In kind it is in vivo, Male db/db mice. The conditions noted are these: 16 weeks old, 24 h urine.
For test [5] the test system is unchanged. The experiment in a line: Tubular regeneration score (HE-stained kidney). In kind it is in vivo, Male db/db mice. Conditions: 16 weeks old, score 0 to 4.
Test [6] has the same test system. Description: Urinary albumin. The conditions noted are these: 30 mg/kg i.p. once every two days for 10 weeks; 16 weeks old.
Test [7] shares this test system. The experiment in a line: Serum creatinine. Conditions: 16 weeks old.
Where [8] appears, read: 30 mg/kg i.p. once every two days for 10 weeks.
The mark [9] stands for this setting: 300 mg/kg orally once every two days for 10 weeks.

With `CC(C)=CCC/C(C)=C/CCC1(C)Oc2c(c(O)cc3c2CN([C@H](Cc2ccccc2)C(=O)O)C3=O)CC1O` (some centres unmarked) [SMTP-4D], the “BS (blood glucose level)” value is on record as 203.5 ± 5.5 mg/dL in test [1] (0th week (before dosing)); 535.5 ± 28.7 mg/dL in test [1] (1st week (before dosing)); 597.3 ± 44.8 mg/dL in test [1] (2nd week); 638.7 ± 34.2 mg/dL in test [1] (3rd week); 580.3 ± 42.9 mg/dL in test [1] (4th week).
As to `CC(C)=CCC/C(C)=C/CCC1(C)Oc2c(c(O)cc3c2CN(c2cc(C(=O)O)ccc2O)C3=O)CC1O` (centres unmarked) [SMTP-27], the “Body weight compared to the DN group” value in test [2] is given as “No significant changes”. In test [3], the “Blood glucose levels compared to the DN group” value is given as “No significant changes”. Besides, the Urine volume in test [4] (setting [8]) was found to be 1659.2 ± 270.2 µL. Besides, the Tubular regeneration score in test [5] (setting [8]) turned out to be 0.0±0.0 pts. In test [6], this molecule displayed a Urinary albumin of 0.3 ± 0.1 mg/h/kg. Also, the Serum creatinine in test [7] (setting [8]) was 0.4 ± 0.1 mg/dL.
For the molecule `CN(C)C(=N)N=C(N)N` [metformin], the Urine volume in test [4] (setting [9]) worked out at 1678.3 ± 250.4 µL. Besides, in test [5] (setting [9]), the Tubular regeneration score was 0.5±0.2 pts. The same molecule had a Serum creatinine in test [7] (setting [9]) of 0.6 ± 0.0 mg/dL.
